From US12661410B2, “Compounds for targeted degradation of RET” (C4 Therapeutics, Inc., priority 2020, dated 2026)
Substitutions are numbered along the chain they refer to. Like-named read-outs stand apart in the source and are kept apart here.

How the values were obtained:
RET (658-1114) = biological target: T1, RET (658-1114) (Homo sapiens, UniProt P07949); assay: HiBiT-Degradation, RET wild-type degradation assay (Nano-Glo HiBiT Lytic), 293T.144 cells; format: cell-based; conditions: for Emax / DC50: 6.0 hours; for Emax: read-out: 293T.144 RET (658-1114) 6.0 hours (Emax); for DC50: read-out: 293T.144 RET (658-1114) 6.0 hours (DC50)
T1 construct: 658-1114; expressed in transfected cells; host or cells: 293T.144 (293T cells, generated in-house)
T1 sequence (P07949 658-1114): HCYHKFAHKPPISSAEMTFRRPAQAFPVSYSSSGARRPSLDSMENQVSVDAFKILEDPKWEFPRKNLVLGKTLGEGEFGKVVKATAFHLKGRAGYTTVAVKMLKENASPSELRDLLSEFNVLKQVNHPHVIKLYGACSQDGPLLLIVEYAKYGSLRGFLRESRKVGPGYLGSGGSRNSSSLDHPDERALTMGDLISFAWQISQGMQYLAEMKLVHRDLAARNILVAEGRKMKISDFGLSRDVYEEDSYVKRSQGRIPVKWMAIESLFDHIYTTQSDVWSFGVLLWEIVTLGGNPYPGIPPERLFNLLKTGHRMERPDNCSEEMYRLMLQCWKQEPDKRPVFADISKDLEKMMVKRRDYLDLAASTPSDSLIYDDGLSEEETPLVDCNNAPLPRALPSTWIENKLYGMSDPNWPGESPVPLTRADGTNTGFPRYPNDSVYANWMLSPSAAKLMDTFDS
How it was run: (§1)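 HEK293T lines stably expressing HiBiT-tagged RET kinase domain (WT: 293T.144; G810R: 293T.165) were treated with degraders for 6 h in duplicate, 11-point half-log series from 10 μM top dose. Lysis with Nano-Glo HiBiT Lytic reagent, luminescence read; DC50 and Emax (% remaining protein) derived from dose-response curves.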

RET(KD: 658-1114 G810R) = biological target: T2, RET(KD: 658-1114 G810R) (Homo sapiens, UniProt P07949, G810R); assay: HiBiT-Degradation, RET G810R degradation assay (Nano-Glo HiBiT Lytic), 293T.165 cells; format: cell-based; conditions: for Emax / DC50: 6.0 hours; for Emax: % remaining protein, read-out: 293T.165 RET(KD: 658-1114 G810R) 6.0 hours (Emax); for DC50: read-out: 293T.165 RET(KD: 658-1114 G810R) 6.0 hours (DC50)
T2 construct: 658-1114; expressed in transfected cells; host or cells: 293T.165 (293T cells, generated in-house)
T2 sequence (P07949 658-1114 G810R): T1 sequence (P07949 658-1114) with G153R
How it was run: as §1

[1] = half-maximal degradation concentration

Row | Compound | 293T.144 RET (658-1114) 6.0 hours (IP) [nM] (RET (658-1114)) | Emax (RET (658-1114); % remaining protein) [%] | DC50 (RET (658-1114); [1]) [nM] | 293T.165 RET(KD: 658-1114 G810R) 6.0 hours (IP) [nM] (RET(KD: 658-1114 G810R)) | Emax (RET(KD: 658-1114 G810R)) [%] | DC50 (RET(KD: 658-1114 G810R); [1]) [nM] | 293T.144 RET (658-1114) 6.0 hours (IP) [nM] (RET (658-1114); HiBiT-Degradation) | DC50 (RET (658-1114); HiBiT-Degradation) [nM] | Emax (RET (658-1114); HiBiT-Degradation) [%] | 293T.165 RET(KD: 658-1114 G810R) 6.0 hours (Emax) (RET(KD: 658-1114 G810R); HiBiT-Degradation) | 293T.165 RET(KD: 658-1114 G810R) 6.0 hours (IP) [nM] (RET(KD: 658-1114 G810R); HiBiT-Degradation) | DC50 (RET(KD: 658-1114 G810R); HiBiT-Degradation) [nM]
1 | N#Cc1cnn2cc(-c3cnn(C4CCN(C(=O)CC5(O)CCN(c6ccc(NC7CCC(=O)NC7=O)cc6F)CC5)CC4)c3)nc(-c3ccc(N4CCN(C(=O)C5CCCCC5)CC4)nc3)c12 (centres unmarked) [Compound 107, 4-[6-[4-(cyclohexanecarbonyl)piperazin-1-yl]-3-pyridyl]-6-[1-[1-[2-[1-[4-[(2,6-dioxo-3-piperidyl)amino]-2-fluoro-phenyl]-4-hydroxy-4-piperidyl]acetyl]-4-piperidyl]pyrazol-4-yl]pyrazolo[1,5-a]pyrazine-3-carbonitrile] | ++++ (<50 nM = ++++) | < 30 | < 50 | ++++ (<50 nM = ++++) | < 30 | < 100 |  |  |  |  |  | 
2 | COc1cc(N2CCN([C@H]3CC[C@H](n4cc(-c5cn6ncc(C#N)c6c(-c6ccc(N7C[C@H]8COC[C@@H](C7)N8Cc7ccc(F)cc7)nc6)n5)cn4)CC3)CC2)c(F)cc1NC1CCC(=O)NC1=O (relative stereo) [Compound 164, 6-[1-[4-[4-[4-[(2,6-dioxo-3-piperidyl)amino]-2-fluoro-5-methoxy-phenyl]piperazin-1-yl]cyclohexyl]pyrazol-4-yl]-4-[6-[(1R,5S)-9-[(4-fluorophenyl)methyl]-3-oxa-7,9-diazabicyclo[3.3.1]nonan-7-yl]-3-pyridyl]pyrazolo[1,5-a]pyrazine-3-carbonitrile] | ++++ (<50 nM = ++++) | < 30 | < 50 | +++ (<100 nM = +++) | < 30 | < 100 |  |  |  |  |  | 
3 | CC(C)Oc1ccc(CN2[C@@H]3COC[C@H]2CN(c2ccc(-c4nc(-c5cnn([C@H]6CC[C@H](N7CCN(c8c(F)cc(NC9CCC(=O)NC9=O)cc8F)CC7)CC6)c5)cn5ncc(C#N)c45)cn2)C3)cn1 (mixture of isomers) [Compound 213, 6-[1-[4-[4-[4-[(2,6-dioxo-3-piperidyl)amino]-2,6-difluoro-phenyl]piperazin-1-yl]cyclohexyl]pyrazol-4-yl]-4-[6-[rac-(1R,5S)-9-[(6-isopropoxy-3-pyridyl)methyl]-3-oxa-7,9-diazabicyclo[3.3.1]nonan-7-yl]-3-pyridyl]pyrazolo[1,5-a]pyrazine-3-carbonitrile] | ++++ (<50 nM = ++++) | < 30 | < 50 | +++ (<100 nM = +++) | < 30 | < 100 |  |  |  |  |  | 
4 | Cn1nc(N2CCC(=O)NC2=O)c2cc(F)c(N3CCN([C@H]4CC[C@@H](n5cc(-c6cn7ncc(C#N)c7c(-c7ccc(N8C[C@H]9COC[C@@H](C8)N9Cc8ccc(=O)[nH]c8)nc7)n6)cn5)CC4)CC3)cc21 (single isomer, unassigned) [Compound 153] | ++++ (<50 nM = ++++) | < 30 | < 50 | ++++ (<50 nM = ++++) | < 30 | < 100 |  |  |  |  |  | 
5 | N#Cc1cnn2cc(-c3ccc(N4CCN(C(=O)CN5CCC(c6ccc(NC7CCC(=O)NC7=O)cc6F)CC5)CC4)cc3)nc(-c3ccc(N4CCN(C(=O)Cc5ccc(F)cn5)CC4)nc3)c12 (centres unmarked) [Compound 52, 6-[4-[4-[2-[4-[4-[(2,6-dioxo-3-piperidyl)amino]-2-fluoro-phenyl]-1-piperidyl]acetyl]piperazin-1-yl]phenyl]-4-[6-[4-[2-(5-fluoro-2-pyridyl)acetyl]piperazin-1-yl]-3-pyridyl]pyrazolo[1,5-a]pyrazine-3-carbonitrile] |  |  |  |  | < 50 | < 100 | ++++ (< 50 nM = ++++) | < 50 | < 30 | +++ (<50% = +++) | ++++ (< 50 nM = ++++) | < 100
6 | N#Cc1cnn2cc(-c3cnn(C4CCN(C(=O)CN5CCC(c6ccc(NC7CCC(=O)NC7=O)cc6F)CC5)CC4)c3)nc(-c3ccc(N4CCN(C(=O)Cc5ccc(F)cn5)CC4)nc3)c12 (centres unmarked) [Compound 51, 6-[1-[1-[2-[4-[4-[(2,6-dioxo-3-piperidyl)amino]-2-fluoro-phenyl]-1-piperidyl]acetyl]-4-piperidyl]pyrazol-4-yl]-4-[6-[4-[2-(5-fluoro-2-pyridyl)acetyl]piperazin-1-yl]-3-pyridyl]pyrazolo[1,5-a]pyrazine-3-carbonitrile] |  |  |  |  | < 50 | < 100 | ++++ (< 50 nM = ++++) | < 50 | < 30 | +++ (<50% = +++) | ++++ (< 50 nM = ++++) | < 100
7 | N#Cc1cnn2cc(-c3cnn([C@H]4CC[C@H](CCN5CCC(c6ccc(NC7CCC(=O)NC7=O)cc6F)CC5)CC4)c3)cc(-c3ccc(N4CCN(C(=O)Cc5ccc(F)cn5)CC4)nc3)c12 (some centres unmarked) [Compound 57, 6-[1-[(1r,4r)-4-[2-[4-[4-[(2,6-dioxo-3-piperidyl)amino]-2-fluoro-phenyl]-1-piperidyl]ethyl]cyclohexyl]pyrazol-4-yl]-4-[6-[4-[2-(5-fluoro-2-pyridyl)acetyl]piperazin-1-yl]-3-pyridyl]pyrazolo[1,5-a]pyridine-3-carbonitrile] |  |  |  |  | < 30 | < 50 | ++++ (< 50 nM = ++++) | < 50 | < 30 | ++++ (< 30% = ++++) | ++++ (< 50 nM = ++++) | < 50

More lines, now with the values ahead:

Row | 293T.144 RET (658-1114) 6.0 hours (IP) [nM] (RET (658-1114)) | Emax (RET (658-1114); % remaining protein) [%] | DC50 (RET (658-1114); [1]) [nM] | 293T.165 RET(KD: 658-1114 G810R) 6.0 hours (IP) [nM] (RET(KD: 658-1114 G810R)) | Emax (RET(KD: 658-1114 G810R)) [%] | DC50 (RET(KD: 658-1114 G810R); [1]) [nM] | 293T.144 RET (658-1114) 6.0 hours (IP) [nM] (RET (658-1114); HiBiT-Degradation) | DC50 (RET (658-1114); HiBiT-Degradation) [nM] | Emax (RET (658-1114); HiBiT-Degradation) [%] | 293T.165 RET(KD: 658-1114 G810R) 6.0 hours (Emax) (RET(KD: 658-1114 G810R); HiBiT-Degradation) | 293T.165 RET(KD: 658-1114 G810R) 6.0 hours (IP) [nM] (RET(KD: 658-1114 G810R); HiBiT-Degradation) | DC50 (RET(KD: 658-1114 G810R); HiBiT-Degradation) [nM] | Compound
8 | ++++ (<50 nM = ++++) | < 30 | < 50 | ++++ (<50 nM = ++++) | < 30 | < 50 |  |  |  |  |  |  | CCC1(C(=O)NC2CCC2)CCN(c2ccc(-c3nc(-c4cnn([C@H]5CC[C@H](N6CCC(c7ccc(N[C@@H]8CCC(=O)NC8=O)cc7)CC6)CC5)c4)cn4ncc(C#N)c34)cn2)CC1 (single isomer, unassigned) [Compound 128]
9 | ++++ (<50 nM = ++++) | < 30 | < 50 | ++++ (<50 nM = ++++) | < 30 | < 50 |  |  |  |  |  |  | CCC1(C(=O)NC(C)C)CCN(c2ccc(-c3cc(-c4cnn([C@H]5CC[C@H](N6CCC(c7ccc(N[C@H]8CCC(=O)NC8=O)cc7F)CC6)CC5)c4)cn4ncc(C#N)c34)cn2)CC1 (single isomer, unassigned) [Compound 194]
10 | ++++ (<50 nM = ++++) | < 30 | < 50 | ++++ (<50 nM = ++++) | < 30 | < 50 |  |  |  |  |  |  | CCC1(C(=O)NC2CCC2)CCN(c2ccc(-c3nc(-c4cnn([C@H]5CC[C@H](N6CCN(c7c(F)cc(N[C@H]8CCC(=O)NC8=O)cc7F)CC6)CC5)c4)cn4ncc(C#N)c34)cn2)CC1 (single isomer, unassigned) [Compound 136]
11 |  |  |  |  | < 50 | < 50 | ++++ (< 50 nM = ++++) | < 50 | < 30 | +++ (<50% = +++) | ++++ (< 50 nM = ++++) | < 50 | CC(C)NC(=O)C1(C)CCN(c2ccc(-c3cc(-c4cnn(C5CCN(C(=O)CN6CCC(c7ccc(NC8CCC(=O)NC8=O)cc7F)CC6)CC5)c4)cn4ncc(C#N)c34)cn2)CC1 (centres unmarked) [Compound 2, 1-(5-(3-Cyano-6-(1-(1-(2-(4-(4-((2,6-dioxopiperidin-3-yl)amino)-2-fluorophenyl)piperidin-1-yl)acetyl)piperidin-4-yl)-1H-pyrazol-4-yl)pyrazolo[1,5-a]pyridin-4-yl)pyridin-2-yl)-N-isopropyl-4-methylpiperidine-4-carboxamide]
